Experimental data: patent US20090105463A1, “Compositions of and Methods of Using Oversulfated Glycosaminoglycans” (Massachusetts Institute of Technology, priority 2005, published 2009)

B1: VEGF-D: vascular endothelial growth factor D, ligand of VEGFR2 and VEGFR3 (protein, UniProt O43915 89-205, looked up)
Vascular endothelial growth …: FAATFYDIETLKVIDEEWQRTQCSPRETCVEVASELGKSTNTFFKPPCVNVFRCGGCCNEESLICMNTSTSYISKQLFEISVPLTSVPELVPVKVANHTGCKCLPTAPRHPYSIIRR
B2: FGF7: Recombinant FGF7 from Sigma (protein, UniProt P21781 32-194, looked up)
Fibroblast growth factor 7: CNDMTPEQMATNVNCSSPERHTRSYDYMEGGDIRVRRLFCRTQWYLRIDKRGKVKGTQEMKNNYNIMEIRTVAVGIVAIKGVESEFYLAMNKEGKLYAKKECNEDCNFKELILENHYNTYASAKWTHNGGEMFVALNQKGIPVRGKKTKKEQKTAHFLPMAIT
B3: VEGF-C: vascular endothelial growth factor C, ligand of VEGFR2 and VEGFR3 (protein, UniProt P49767 112-227, looked up)
Vascular endothelial growth …: AHYNTEILKSIDNEWRKTQCMPREVCIDVGKEFGVATNTFFKPPCVSVYRCGGCCNSEGLQCMNTSTSYLSKTLFEITVPLSQGPKPVTISFANHTSCRCMSKLDVYRQVHSIIRR

Columns and labels:
Type in all cases: cell-based, rat
NBT-II cells = test: Proliferation assay, whole cell number by electronic cell counter; design: reduction in whole cell number / reduction in cell number in the presence of FGF7: concentration or dose not given beside the values; details: for percent reduction in whole cell number ± standard deviation / proliferative effect of ligand in the absence of GAGs / reduction in whole cell number: no GAG; for proliferative effect of ligand in the absence of GAGs: ligand 10 ng/ml; for reduction in whole cell number: ligand alone; for reduction in whole cell number / reduction in cell number in the presence of FGF7: compared to untreated cells; for reduction in cell number in the presence of FGF7: ligand plus FGF7, no GAG
Method: NBT-II cells were grown until confluence in 75 cm^2 flasks. Each flask was washed with 20 ml PBS and treated with 3 ml trypsin-EDTA at 37° C. for ˜15 minutes until cells completely detached. Cells were centrifuged for 3 minutes at 195×g. The supernatant was aspirated, and the cells were resuspended in 10 ml media. Cell density was measured using an electronic cell counter, and the suspension was diluted to 50,000 cells/ml. The suspension was plated 1 ml/well into 24-well tissue culture plates. After a 24 hour incubation in a 5% CO2, 37° C. humidified incubator, the media was aspirated, the wells were washed with serum free media, and the cells were supplemented with media containing 0.1% FBS and incubated for 24 hours. Cells were sequentially treated with antibodies, GAGs and growth factors as appropriate. Sodium chlorate was added at 50 mM [30]. Antibodies to VEGFR2 or VEGFR3 were added to yield a final dilution of 1:100. All GAGs were initially added over a range of concentrations from 1 ng/ml to 100 μg/ml. Heparin, UDS and DS DT were subsequently added at 1 μg/ml unless otherwise noted. FGF1, FGF2, FGF7 and VEGF were added at 10 ng/ml unless otherwise noted. Cells were then incubated for 72 hours. Wells were then washed twice with PBS and treated with 0.5 ml trypsin-EDTA/well and incubated for 10 minutes at 37° C. Whole cell number was determined using an electronic cell counter.

VEGF-C = test: Whole cell ELISA for VEGF-C
Method: (§1) ELISA was performed using whole cells to quantify relative levels of kinase activity. NBT-II cells were grown until confluence in 75 cm^2 flasks. Each flask was washed with 20 ml PBS and treated with 3 ml trypsin-EDTA at 37° C. for 3-5 minutes, until cells detached. Cells were centrifuged for 3 minutes at 195×g. The supernatant was aspirated, and the cells were resuspended in 10 ml media. The cell density was measured using an electronic cell counter, and the suspension was diluted to 50,000 cells/ml. 100 mm dishes were supplemented with 10 ml cell suspension per dish. After a 24 hour incubation, the media was aspirated, the dishes washed with serum free media, and the cells supplemented with media containing 0.1% FBS. After a 24 hour incubation, dishes were treated with PBS, 10 μg/ml heparin or 10 μg/ml DS DT. […] Cells were incubated for 30 minutes (for Erk1, Erk2, phosphor-Erk1/2, Mek1, Mek2, phospho-Mek1/2, Akt1/2 and phospho-Akt1/2/3) or 24 hours (for VEGF, VEGF-C and VEGF-D). Media were aspirated and cells were homogenized per manufacture instructions. Total protein concentration was determined by Bradford assay. […] The reaction was quenched with 3 M sulfuric acid, and the plates were analyzed using a UV plate reader at 450 nm. Data were quantified by comparing to a standardized curve with varying concentrations of protein from untreated cells.

VEGF-D = test: Whole cell ELISA for VEGF-D; details: FGF2 in the presence of PBS, heparin or DS DT, 24 hours
Method: as §1

VEGFR3 = test: Whole cell ELISA for VEGFR3; details: addition of ligand, 24 hours
Method: (§2) ELISA was performed using whole cells to quantify relative levels of kinase activity. NBT-II cells were grown until confluence in 75 cm^2 flasks. Each flask was washed with 20 ml PBS and treated with 3 ml trypsin-EDTA at 37° C. for 3-5 minutes, until cells detached. Cells were centrifuged for 3 minutes at 195×g. The supernatant was aspirated, and the cells were resuspended in 10 ml media. The cell density was measured using an electronic cell counter, and the suspension was diluted to 50,000 cells/ml. 100 mm dishes were supplemented with 10 ml cell suspension per dish. After a 24 hour incubation, the media was aspirated, the dishes washed with serum free media, and the cells supplemented with media containing 0.1% FBS. After a 24 hour incubation, dishes were treated with PBS, 10 μg/ml heparin or 10 μg/ml DS DT. Subsequently, cells were treated with 10 ng/ml FGF7, 10 ng/ml VEGF or both. Cells were incubated for 30 minutes (for Erk1, Erk2, phosphor-Erk1/2, Mek1, Mek2, phospho-Mek1/2, Akt1/2 and phospho-Akt1/2/3) or 24 hours (for VEGF, VEGF-C and VEGF-D). […] Total protein concentration was determined by Bradford assay. […] The reaction was quenched with 3 M sulfuric acid, and the plates were analyzed using a UV plate reader at 450 nm. Data were quantified by comparing to a standardized curve with varying concentrations of protein from untreated cells.

[1] = tested on: phospho-Akt1/2/3 (Thr 308); test: Whole cell ELISA for phospho-Akt1/2/3 (Thr 308); details: ligand in the presence of PBS (no GAG)
Method: as §2

[2] = FGF7: ligand (10 ng/ml) or PBS plus FGF7 at 10 ng/ml

Molecule | percent reduction in whole cell number ± standard deviation (NBT-II cells; [2]) [%] | percent reduction in whole cell number ± standard deviation (NBT-II cells; PBS: ligand at 10 ng/ml alone) [%] | proliferative effect of ligand in the absence of GAGs (NBT-II cells) | reduction in whole cell number (NBT-II cells) [%] | reduction in cell number in the presence of FGF7 (NBT-II cells) [%] | VEGFR3 production (VEGFR3) | also measured
FGF1: Recombinant FGF1, gift from Amgen | 18.0 ± 2.6 | 5.4 ± 8.3 | did not induce significant proliferative effects | – | – | – | –
FGF2: Recombinant human FGF2, gift from Scios | 30.4 ± 8.7 | 18.3 ± 5.0 | reduced whole cell number | – | – | – | production of VEGF-C (VEGF-C; FGF2 in the presence of PBS, heparin or DS DT, 24 hours): did not alter; production of VEGF-D (VEGF-D): did not alter
VEGF | 30.1 ± 7.0 | 19.8 ± 4.5 | reduced whole cell number | 19.8±4.5 | 30.1±7.0 | not | VEGF-C levels (VEGF-C; ligand over 24 hours, regardless of GAG used): increased
B1 | – | – | – | 16.2±10.8 | 34.5±1.5 | – | –
B2 | 14.1 ± 2.5 | – | – | 14.1±2.5 | – | increase | reduction of phosphorylation of Akt1/2/3 (Thr 308) [1]: ~20%; increase in whole cell number (NBT-II cells; FGF7 alone, cells treated with 50 mM sodium chlorate): 28.4±11.8%; concentration eliciting maximal effect on cell growth (NBT-II cells; dose response, no sodium chlorate, effect constant through 100 ng/ml): 5 ng/mL; concentration at which maximal proliferative effect is achieved (NBT-II cells; in the presence of 50 mM sodium chlorate): 10 ng/mL
B3 | – | – | – | 13.4±8.7 | 5.9±5.0 | – | –
